Measurements: PMC10591299, “Targeting SHP2 with an Active Site Inhibitor Blocks Signaling and Breast Cancer Cell Phenotypes” (ACS Bio & Med Chem Au, 2023)

Columns and labels:
[1] = test system: BT474 cells; assay: Colony formation in soft agar, BT474; assay type: cell-based; details: BT474, 500 nM, 10 days, versus vehicle
Procedure: (§1) Since SHP2 is essential for the growth and transformation of BC cells,[8],[9],[11] we determined the effect of SHP2 inhibition with CNBCA in 2D and 3D culture systems. For the effect on cell growth, BC cells (BT474 and MDA-MB468) were seeded in 2D culture and treated with a single concentration of CNBCA (500 nM), the concentration that provided a 50% inhibition of SHP2 mediated signaling in BT474 cells. Images were collected at the start and every 24 h for a total of 72 h (3 days). […] For effect on anchorage independent growth, approximately 10^6 cells were seeded in soft agar as described previously,[24] and treated with CNBCA at 500 nM concentration for 10 days with refeeding and adjustment of compound concentration. […] Finally, the effect of CNBCA on cancer stem cell properties was determined by the suspension assay, in which only cells with stem-like properties only can grow and form mammospheres.[7],[24],[36] Approximately 10^6 cells were seeded in nonadherent 6 cm plates and treated with CNBCA (500 nM) for 10 days with complementation of media and drug concentration.
For colony formation studies, we used the soft agar assay, which keeps cells anchorage independently, allowing determination on the transformation phenotype of cancer cells, including breast cancer cells.[11],[35] For this assay, we first prepared a 5% stock suspension in PBS by boiling it in a microwave. […]

[2] = test system: BT474 cells; assay: Mammosphere formation in suspension culture, BT474; assay type: cell-based; details: BT474, 500 nM, 10 days, versus vehicle
Procedure: as §1
To further evaluate the anti-breast cancer cell effect of CNBCA, we treated cells seeded in a suspension culture known as the mammosphere assay. In this assay, cells with cancer stem cell properties can grow and form sphere-like cellular aggregates known as mammospheres.[7],[38] […]

[3] = molecular target: T1, SHP1 (Homo sapiens, UniProt P29350); assay: PTPase assay, GST-fusion PTP domain of SHP1, DiFMUP substrate; assay type: biochemical
T1 construct: The GST fusion PTP domains of SHP1 and PTP1B were expressed and purified in a fashion similar to that of SHP2; GST; made in house
T1 sequence (P29350 244-515 limits assumed): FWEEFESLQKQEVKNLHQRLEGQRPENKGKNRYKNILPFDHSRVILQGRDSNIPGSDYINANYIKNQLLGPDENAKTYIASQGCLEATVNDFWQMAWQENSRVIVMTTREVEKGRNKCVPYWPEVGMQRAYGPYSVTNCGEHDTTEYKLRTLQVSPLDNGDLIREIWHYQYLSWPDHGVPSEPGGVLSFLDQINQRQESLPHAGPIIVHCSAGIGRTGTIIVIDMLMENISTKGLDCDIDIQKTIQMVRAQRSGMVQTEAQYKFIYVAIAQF
Procedure: After completion of synthesis, both CNBCA and CNBBA were purified on silica gel, and purity was determined by HPLC. The purified compounds were then tested for their effect on the SHP2 enzyme activity and on the activity of the selected control PTPs (SHP1 and PTP1B) by the phosphotyrosyl phosphatase (PTPase) assay as described previously.[30],[31] First, the GST fusion of the PTP domains of SHP2, SHP1, and PTP1B were produced and purified as reported by us previously.[32] The reactions were performed in a buffer containing 10 mM Tris-HCl (pH 7.2), 100 mM NaCl, 1 mM EDTA, 1 mM dithiothreitol (DTT), and 0.01% Tween-20. […] The complete mixture was incubated at 37 °C for 20 min, and fluorescence intensity was measured by the Synergy 4 plate reader at the excitation and emission wavelengths of 360 and 460 nm, respectively. The half inhibitory concentration (IC50) value of each compound was calculated and plotted using Graphpad Prism software. […]
We used the PTPase assay described previously[30],[31] to evaluate the effect of the newly synthesized compounds on the enzymatic activity of SHP2, SHP1, and PTP1B. […] The mixtures were incubated at 37 °C for 20 min and transferred to 96 well plates, and the fluorescence intensity was measured by a Synergy 4 plate reader at the excitation and emission wavelengths of 360 and 460 nm, respectively. […]

[4] = test system: BT474 cells; assay: Cell growth in 2D culture, BT474; assay type: cell-based; details: BT474, 500 nM, 72 h; vehicle treated cells grew to confluency
Procedure: as §1

IC50 ([3]; PTP domain, 1 nM enzyme, 35 μM DiFMUP): 34.6 µM | selectivity ratio SHP1 versus SHP2 ([3]; SHP2 IC50 as reference): 39.77 fold
Structure (SMILES): CCCCCCCCCOc1ccc(-c2ccc(C(=O)O)cc2)cc1CCCC(=O)O [CNBCA, 3′-(3-carboxypropyl)-4′-(nonyloxy)-[1,1′-biphenyl]-4-carboxylic acid]
colony formation in soft agar [1]: fewer and smaller colonies | mammosphere formation [2]: fewer and smaller mammospheres | cell growth in 2D culture [4]: half-confluent
